Tested on: KRAS-mutant PDC multicell tumor spheroid viability
Experiment: Anticancer human tumor 521955-158-R2-J5-PDC patient-derived pancreatic carcinoma cell line growth inhibition [KRAS2]
Settings: for IC50: curve of first compound; for viability, T/C: stronger effect = lower value
In short: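 Combination screen of spheroid viability in tumor-cell co-cultures with endothelial (HUVEC) and mesenchymal stem cell stroma. Each agent was tested in half-log dilutions, topping at clinical Cmax or at 10 microM without a known Cmax.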

[1] = second compound 0.1 µM, first compound 0.0316 µM
[2] = second compound 0.1 µM, first compound 0.1 µM
[3] = second compound 0.1 µM, first compound 0.316 µM
[4] = second compound 0.1 µM, first compound 1 µM
[5] = second compound 0.1 µM, first compound 3.16 µM
[6] = second compound 0.1 µM, first compound 10 µM
[7] = second compound 0.316 µM, first compound 0.0316 µM
[8] = second compound 0.316 µM, first compound 0.1 µM
[9] = second compound 0.316 µM, first compound 0.316 µM
[10] = second compound 0.316 µM, first compound 1 µM
[11] = second compound 0.316 µM, first compound 3.16 µM
[12] = second compound 0.316 µM, first compound 10 µM
[13] = second compound 1 µM, first compound 0.0316 µM
[14] = second compound 1 µM, first compound 0.1 µM
[15] = second compound 1 µM, first compound 0.316 µM
[16] = second compound 1 µM, first compound 1 µM
[17] = second compound 1 µM, first compound 3.16 µM
[18] = second compound 1 µM, first compound 10 µM
[19] = second compound 3.16 µM, first compound 0.0316 µM
[20] = second compound 3.16 µM, first compound 0.1 µM
[21] = second compound 3.16 µM, first compound 0.316 µM
[22] = second compound 3.16 µM, first compound 1 µM
[23] = second compound 3.16 µM, first compound 10 µM
[24] = second compound 10 µM, first compound 0.0316 µM
[25] = second compound 10 µM, first compound 0.1 µM
[26] = second compound 10 µM, first compound 0.316 µM
[27] = second compound 10 µM, first compound 1 µM
[28] = second compound 10 µM, first compound 3.16 µM
[29] = second compound 10 µM, first compound 10 µM
[30] = second compound 0.1 µM, first compound 0.01 µM
[31] = second compound 0.316 µM, first compound 0.01 µM
[32] = second compound 1 µM, first compound 0.01 µM
[33] = second compound 3.16 µM, first compound 0.01 µM
[34] = second compound 10 µM, first compound 0.01 µM
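Also: viability read after seven days of drug exposure.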

Row | SMILES | IC50 (second compound 0.1 µM) | IC50 (second compound 0.316 µM) | IC50 (second compound 1 µM) | IC50 (second compound 3.16 µM) | IC50 (second compound 10 µM) | viability, T/C [1] | viability, T/C [2] | viability, T/C [3] | viability, T/C [4] | viability, T/C [7] | viability, T/C [8] | viability, T/C [9] | viability, T/C [10] | viability, T/C [13] | viability, T/C [14] | viability, T/C [15] | viability, T/C [16] | viability, T/C [19] | viability, T/C [20] | viability, T/C [21] | further results
1 | CC(C)NCC(C(=O)N1CCN(c2ncnc3c2C(C)CC3O)CC1)c1ccc(Cl)cc1 (configuration not stated) + C=CC(=O)N1CCN(c2nc(=O)n(-c3c(C)ccnc3C(C)C)c3nc(-c4c(O)cccc4F)c(F)cc23)C(C)C1 | > 10000 nM | > 10000 nM | > 10000 nM | 293 nM | 134 nM | 102% | 105% | 77.7% | 78% | 116% | 100% | 74.4% | 64.4% | 106% | 94.9% | 64.1% | 54.5% | 94.8% | 82.8% | 46.5% | viability, T/C [5]: 76.5%; viability, T/C [6]: 67%; viability, T/C [11]: 65.3%; viability, T/C [12]: 58.6%; viability, T/C [17]: 58.2%; viability, T/C [18]: 53.2%; viability, T/C [22]: 43.2%; viability, T/C [23]: 31%; viability, T/C [24]: 69.5%; viability, T/C [25]: 56.2%; viability, T/C [26]: 32.1%; viability, T/C [27]: 19.7%; viability, T/C [28]: 19.2%; viability, T/C [29]: 13.2%
2 | CC1COCCN1c1cc(-c2ccnn2C)c2ccnc(-c3ccn[nH]3)c2n1 (configuration not stated) + C=CC(=O)N1CCN(c2nc(=O)n(-c3c(C)ccnc3C(C)C)c3nc(-c4c(O)cccc4F)c(F)cc23)C(C)C1 | 30.2 nM | 40.3 nM | 30.1 nM | 24.3 nM | 11.5 nM | 47.9% | 10.5% | 13.5% | 24.1% | 58.5% | 11.4% | 13% | 20.3% | 47.6% | 10.5% | 13.6% | 25.6% | 41.3% | 11.6% | 13.7% | viability, T/C [30]: 101%; viability, T/C [5]: 26.9%; viability, T/C [31]: 114%; viability, T/C [11]: 28%; viability, T/C [32]: 102%; viability, T/C [17]: 29%; viability, T/C [33]: 79.2%; viability, T/C [22]: 22.6%; viability, T/C [34]: 54.1%; viability, T/C [24]: 18.1%; viability, T/C [25]: 13.2%; viability, T/C [26]: 18.1%; viability, T/C [27]: 23.4%; viability, T/C [28]: 25.5%
3 | CCN1CCN(Cc2ccc(Nc3ncc(F)c(-c4cc(F)c5nc(C)n(C(C)C)c5c4)n3)nc2)CC1 + C=CC(=O)N1CCN(c2nc(=O)n(-c3c(C)ccnc3C(C)C)c3nc(-c4c(O)cccc4F)c(F)cc23)C(C)C1 | > 1000 nM | > 1000 nM | > 1000 nM | > 1000 nM | > 1000 nM | 110% | 100% | 122% | 97.2% | 91.1% | 101% | 117% | 109% | 94.5% | 95.5% | 113% | 96.7% | 91.8% | 80.5% | 88.4% | viability, T/C (second compound 0.1 µM, first compound 0.00316 µM): 113%; viability, T/C [30]: 100%; viability, T/C (second compound 0.316 µM, first compound 0.00316 µM): 114%; viability, T/C [31]: 108%; viability, T/C (second compound 1 µM, first compound 0.00316 µM): 112%; viability, T/C [32]: 108%; viability, T/C (second compound 3.16 µM, first compound 0.00316 µM): 89.2%; viability, T/C [33]: 99.4%; viability, T/C [22]: 88.8%; viability, T/C (second compound 10 µM, first compound 0.00316 µM): 81%; viability, T/C [34]: 88.3%; viability, T/C [24]: 89.4%; viability, T/C [25]: 74.6%; viability, T/C [26]: 66.7%; viability, T/C [27]: 50.7%
4 | CCNC(=O)CC1N=C(c2ccc(Cl)cc2)c2cc(OC)ccc2-n2c(C)nnc21 (configuration not stated) + C=CC(=O)N1CCN(c2nc(=O)n(-c3c(C)ccnc3C(C)C)c3nc(-c4c(O)cccc4F)c(F)cc23)C(C)C1 | 474 nM | 1180 nM | 1100 nM | 741 nM | 169 nM | 99.4% | 93.4% | 55.3% | 41.1% | 119% | 98.4% | 72.2% | 50% | 120% | 109% | 77% | 52.3% | 101% | 86.7% | 63% | viability, T/C [5]: 39.9%; viability, T/C [6]: 35.7%; viability, T/C [11]: 43.7%; viability, T/C [12]: 37.1%; viability, T/C [17]: 38.9%; viability, T/C [18]: 35.8%; viability, T/C [22]: 45.4%; viability, T/C (second compound 3.16 µM, first compound 3.16 µM): 39.1%; viability, T/C [23]: 37.5%; viability, T/C [24]: 66.5%; viability, T/C [25]: 58.6%; viability, T/C [26]: 39.4%; viability, T/C [28]: 29%; viability, T/C [29]: 31.1%

Source: PubChem BioAssay AID1963871 (Molecular Pharmacology Branch, DTP, NCI, 2024)
